Reference: US10561703B2, “Method of modulating sex hormone levels using a sex hormone secretion modulator” (GEMVAX & KAEL CO., LTD., priority 2013, dated 2020)

Tested on: LH
Assay: LH level in blood (serum CLIA) after repeated sc PEP-1
Assay type: in vivo, SD rats
Protocol: PEP-1 (peptide of SEQ ID NO: 1), lyophilized white powder, obtained according to the method mentioned in example 1 was dissolved in 0.9% of saline, considering the correction factor of PEP-1 (purity: 94.13%, content: 92.36%, correction factor: 1.15). 50 mg/mL stock solution was further diluted into 20 mg/mL, 2 mg/mL, and 1 mg/mL with 0.9% saline, and stored at 4° C. for a week until the use.
The purpose of this example is to confirm the change of sexual hormones in blood from SD rats with 7 days repeated daily administration of SEQ ID NO: 1 peptide, PEP-1. This experiment followed the Ethics Regulation of Animal Test by KAMSI Inc. (Korea Animal Medical Science Institute). In addition, this experiment, Non-GLP experiment, referred to the MFDS (Ministry of Food and Drug Safety) notification; Agent 2013-40 (5th April 2013), Principles of Good Laboratory Practice (1997).
SPF Rats (Crlj:CD(SD)) were purchased from ORIENTBio Inc. (Mokdong-ri, Buk-myeon, Gapyeong-gun, Gyeonggi-do, Republic of Korea). 75 male (6.5 weeks old and 190˜210 g) and 75 female (6.5 weeks old and 160˜180 g) rats were monitored for 4 days, and 64 of male and female rats (each) were selected for the experiment. Raising condition is as follows; 23±3° C. of temperature, […] of relative humidity, 10˜20 times/hr of number of air changes, 12 hours (8 a.m.˜8 p.m.) of lighting with 150˜300 Lux of intensity.
64 male and female […] (mentioned above) were divided into 8 groups. Administration regimen, for example, drugs, routes, dosages, and volumes were as follows:
The detailed administration regimen is as follows; once a day, twice a day and twice a week in each experimental group. Injection initiated at 10 a.m. every day, and each rat was injected at one minute intervals. Rats in Group 9, 10, 13 and 14 were injected twice a week. Administration of high dose test agent preceded that of low dose. The volume of injection was calculated using recently measured weight of rats, and it was 5 mL/kg. Subcutaneous injection was performed as follows; assistant tilted the back of rat upward, and experimenter sterilized the back of rat with 70% alcohol, followed by subcutaneous injection of test agent with 26 G syringe.
1.4 mL of blood sample (0.7 mL of serum) was collected after measurement of weight (Day 0). Next day (1 Day), 1.4 mL of blood sample (0.7 mL of serum) was collected twice after injection of test agent (4 hrs and 8 hrs after administration of test agent). For next 6 days (Day 2˜Day 7), 1.4 mL of blood was extracted once everyday (4 hours after injection of test agent). Dose and volume of test agent of each group followed the Table 3, and injection time zone was same every day. Blood was extracted from the jugular vein, and left at room temperature for 30 minutes. Serum was separated using centrifugation (10,000 rpm for 5 minutes), and stored at −70±5° C. in Deep freezer until the use. Blood extraction from each subject was done in the same time zone every day.
A CLIA (Chemi-Luminescence Immune Assay) Kit was used to analyze Testosterone, Estradiol E2, FSH (Follicle stimulating hormone), and LH (Luteinizing hormone). Analysis was completed within 48 hrs after blood extraction (Laboratory Medicine Department, Chung-Ang University Hospital), and detailed method is as follows; One-way ANOVA was used to verify the comparison between the vehicle and PEP-1, and between different doses of PEP-1. For further analysis, Duncan test was used as parametric test and Dunnett's test as non-parametric test. p<0.05 represents the statistical significance, and all statistical analysis was carried out with SPSS 10.1.
LH was analyzed using the samples prepared from example 2. 50 μL of serum was used for analysis. Fundamentals of analysis is Two-site sandwich immunoassay based on direct chemi-luminescent. As mentioned in example 2, CLIA (Chemi-luminescence immune assay) Kit was used, following the manufacture's protocol.

Sequence: EARPALLTSRLRFIPK (listed as Homo sapiens) [PEP-1, hormone secretion modulator / GnRH analog]
- LH level in blood (G11 Male 100 mg/kg sc 1/day x7, 5 days): 0.19 mIU/mL
- LH level in blood (G11 Male 100 mg/kg sc 1/day x7, 6 days): 0.21 mIU/mL
- LH level in blood (G11 Male 100 mg/kg sc 1/day x7, 7 days): 0.21 mIU/mL
- LH level in blood (G11 Male 100 mg/kg sc 1/day x7, pre): 0.1 mIU/mL
- LH level in blood (G12 Female 100 mg/kg sc 1/day x7, 4 hr): 0.3 mIU/mL
- LH level in blood (G12 Female 100 mg/kg sc 1/day x7, 8 hr): 0.17 mIU/mL
- LH level in blood (G12 Female 100 mg/kg sc 1/day x7, 2 days): 0.22 mIU/mL
- LH level in blood (G12 Female 100 mg/kg sc 1/day x7, 3 days): 0.22 mIU/mL
- LH level in blood (G12 Female 100 mg/kg sc 1/day x7, 4 days): 0.23 mIU/mL
- LH level in blood (G12 Female 100 mg/kg sc 1/day x7, 5 days): 0.23 mIU/mL
- LH level in blood (G12 Female 100 mg/kg sc 1/day x7, 6 days): 0.28 mIU/mL
- LH level in blood (G12 Female 100 mg/kg sc 1/day x7, 7 days): 0.27 mIU/mL
- LH level in blood (G12 Female 100 mg/kg sc 1/day x7, pre): 0.13 mIU/mL
- LH level in blood (G13 Male 100 mg/kg sc 2/week x2 (days 1,7), 4 hr): 1.52 mIU/mL
- LH level in blood (G13 Male 100 mg/kg sc 2/week x2 (days 1,7), 8 hr): 0.21 mIU/mL
- LH level in blood (G13 Male 100 mg/kg sc 2/week x2 (days 1,7), 2 days): 0.11 mIU/mL
- LH level in blood (G13 Male 100 mg/kg sc 2/week x2 (days 1,7), 3 days): 0.11 mIU/mL
- LH level in blood (G13 Male 100 mg/kg sc 2/week x2 (days 1,7), 4 days): 0.14 mIU/mL
- LH level in blood (G13 Male 100 mg/kg sc 2/week x2 (days 1,7), 5 days): 0.13 mIU/mL
- LH level in blood (G13 Male 100 mg/kg sc 2/week x2 (days 1,7), 6 days): 0.11 mIU/mL
- LH level in blood (G13 Male 100 mg/kg sc 2/week x2 (days 1,7), 7 days): 0.99 mIU/mL
- LH level in blood (G13 Male 100 mg/kg sc 2/week x2 (days 1,7), pre): 0.12 mIU/mL
- LH level in blood (G14 Female 100 mg/kg sc 2/week x2 (days 1,7), 4 hr): 0.44 mIU/mL
- LH level in blood (G14 Female 100 mg/kg sc 2/week x2 (days 1,7), 8 hr): 0.18 mIU/mL
- LH level in blood (G14 Female 100 mg/kg sc 2/week x2 (days 1,7), 2 days): 0.17 mIU/mL
- LH level in blood (G14 Female 100 mg/kg sc 2/week x2 (days 1,7), 3 days): 0.14 mIU/mL
- LH level in blood (G14 Female 100 mg/kg sc 2/week x2 (days 1,7), 4 days): 0.09 mIU/mL
- LH level in blood (G14 Female 100 mg/kg sc 2/week x2 (days 1,7), 5 days): 0.12 mIU/mL
- LH level in blood (G14 Female 100 mg/kg sc 2/week x2 (days 1,7), 6 days): 0.11 mIU/mL
- LH level in blood (G14 Female 100 mg/kg sc 2/week x2 (days 1,7), 7 days): 0.57 mIU/mL
- LH level in blood (G14 Female 100 mg/kg sc 2/week x2 (days 1,7), pre): 0.12 mIU/mL
- LH level in blood (G15 Male 250 mg/kg sc 1/day x7, 4 hr): 1.4 mIU/mL
- LH level in blood (G15 Male 250 mg/kg sc 1/day x7, 8 hr): 0.29 mIU/mL
- LH level in blood (G15 Male 250 mg/kg sc 1/day x7, 2 days): 0.28 mIU/mL
- LH level in blood (G15 Male 250 mg/kg sc 1/day x7, 3 days): 0.2 mIU/mL
- LH level in blood (G15 Male 250 mg/kg sc 1/day x7, 4 days): 0.19 mIU/mL
- LH level in blood (G15 Male 250 mg/kg sc 1/day x7, 5 days): 0.2 mIU/mL
- LH level in blood (G15 Male 250 mg/kg sc 1/day x7, 6 days): 0.21 mIU/mL
- LH level in blood (G15 Male 250 mg/kg sc 1/day x7, 7 days): 0.23 mIU/mL
- LH level in blood (G15 Male 250 mg/kg sc 1/day x7, pre): 0.12 mIU/mL
- LH level in blood (G16 Female 250 mg/kg sc 1/day x7, 4 hr): 0.42 mIU/mL
- LH level in blood (G16 Female 250 mg/kg sc 1/day x7, 8 hr): 0.2 mIU/mL
- LH level in blood (G16 Female 250 mg/kg sc 1/day x7, 2 days): 0.23 mIU/mL
- LH level in blood (G16 Female 250 mg/kg sc 1/day x7, 3 days): 0.22 mIU/mL
- LH level in blood (G16 Female 250 mg/kg sc 1/day x7, 4 days): 0.23 mIU/mL
- LH level in blood (G16 Female 250 mg/kg sc 1/day x7, 5 days): 0.26 mIU/mL
- LH level in blood (G16 Female 250 mg/kg sc 1/day x7, 6 days): 0.28 mIU/mL
- LH level in blood (G16 Female 250 mg/kg sc 1/day x7, 7 days): 0.28 mIU/mL
- LH level in blood (G16 Female 250 mg/kg sc 1/day x7, pre): 0.11 mIU/mL
- Effect on LH secretion (male and female): seems to stimulate the LH secretion
- LH level (male, 4 hrs, all groups but vehicle, before administration 0.1 mIU/mL): 0.5-1.5 mIU/mL
